In the kinase profiling compilation of Christmann-Franck et al. (2016):
pKi: −log10 of the molar value.

Molecular target: SGK1 (human) (UniProt O00141)
Assay: Flashplate

SGK1 (human), sequence (O00141 whole entry, looked up): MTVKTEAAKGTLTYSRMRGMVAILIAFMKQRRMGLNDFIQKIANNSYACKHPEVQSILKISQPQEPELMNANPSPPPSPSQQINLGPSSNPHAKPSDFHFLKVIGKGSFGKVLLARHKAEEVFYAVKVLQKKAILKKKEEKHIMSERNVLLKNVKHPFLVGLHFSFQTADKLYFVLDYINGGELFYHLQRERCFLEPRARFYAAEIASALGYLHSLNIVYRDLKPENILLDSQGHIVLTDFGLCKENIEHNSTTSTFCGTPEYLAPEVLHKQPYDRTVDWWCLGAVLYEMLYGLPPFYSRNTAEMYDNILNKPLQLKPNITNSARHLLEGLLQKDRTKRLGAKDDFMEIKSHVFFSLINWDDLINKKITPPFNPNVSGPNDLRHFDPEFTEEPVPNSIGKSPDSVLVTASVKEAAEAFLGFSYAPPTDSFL

| Structure (SMILES) | pKi |
| --- | --- |
| CNC(=O)COc1ccc(Nc2nc(Nc3ccc(C)c(S(N)(=O)=O)c3)ncc2F)cc1 | < 5.00 |
| c1cc2cc(-c3ccc4cn[nH]c4c3)cnc2[nH]1 | 5.70 |
| CNc1nccn2c(-c3ccnc(NCC(C)(C)CO)n3)c(-c3ccc(F)cc3)nc12 | < 5.00 |
| COc1ccc(C(=O)Nc2nc3ccc(Cl)cc3s2)c(OC)c1 | < 5.00 |
| CSc1c[nH]c2ncnc(NCCCO)c12 | < 5.00 |
| CCN1CCN(Cc2ccc(NC(=O)Nc3ccc(Oc4cc(NC)ncn4)cc3)cc2C(F)(F)F)CC1 | < 5.20 |
| COc1nccc(-c2c(-c3ccc(F)cc3)ncn2C2CCNCC2)n1 | < 5.00 |
| CCOc1nc(NC(C)=O)cc(N)c1C#N | < 5.00 |
| CC(C)Oc1nccn2c(-c3ccnc(NCC(C)(C)O)n3)c(-c3ccc(F)cc3F)nc12 | < 5.00 |
| Cc1cc2cc(-c3csc4c(-c5cccc(S(C)(=O)=O)c5)cnc(N)c34)ccc2[nH]1 | < 5.00 |
| COc1cc(/C=C(\C#N)c2nc3cc(C)ccc3[nH]2)c(Br)cc1O | 5.30 |
| NC(=O)c1cc2c(-c3cc(C(F)(F)F)cc(C(F)(F)F)c3)cncc2s1 | < 5.00 |
| O=C(c1cc(-c2ccc3[nH]ncc3c2)on1)N1CCC[C@@H](O)C1 | < 5.00 |
| N#Cc1ncc2nc1OCCCCCOc1cc(OCC(O)CO)c(Cl)cc1NC(=O)N2 (stereo not given) | < 5.00 |
| FC(F)(F)Oc1ccc(-c2ccc3[nH]cc(C4=CCNCC4)c3c2)cc1 | < 5.00 |
| O=C(NCC1CCCCC1)c1cc2c(-c3ccccc3)n[nH]c2s1 | 5.50 |
| NC[C@@H](O)[C@@H](O)Cn1cc(I)c2c(N)ncnc21 | 5.30 |
| CCNc1nc2cc(Cl)c(OC)cc2nc1NCC | < 5.00 |
| CN1CC[C@@H](c2c(O)cc(O)c3c(=O)cc(-c4ccccc4Cl)oc23)[C@@H](O)C1 | < 5.00 |
| FC(F)(F)c1ccc(Cn2cc(-c3ccc4[nH]ncc4c3)nn2)c(C(F)(F)F)c1 | < 5.00 |
| Cc1cc(C)c2oc(Nc3ccc(-c4cccc(C(N)=O)c4N)cc3F)nc2c1 | < 5.00 |

| Structure (SMILES) | pKi |
| --- | --- |
| CC(C)(O)c1nnc2ccc(-c3c(-c4ccc(F)cc4F)nc4n3CCC4)nn12 | < 5.00 |
| O=S(=O)(c1cccc2cnccc12)N1CCCNCC1 | 5.20 |
| CN(C)c1cc2sncc2cc1NC(=O)C(=O)O | < 5.00 |
| Cc1nn(-c2ccccc2)c2c1c(=O)c1cc(Cl)ccc1n2O | < 5.00 |
| Cc1cn2c(-c3ccnc(NCC(C)(C)CO)n3)c(-c3ccc(F)cc3F)nc2c(C)n1 | < 5.00 |
| O=C1Nc2ccccc2Nc2ccccc21 | < 5.00 |
| CCCCNc1ccc2c3c(cccc13)C(=O)N(CCNCCO)C2=O | < 5.00 |
| O=c1[nH]c2cc(Cl)cc(Cl)c2c(-c2cc(Cl)ccc2O)c1O | < 5.00 |
| O=C1NN=Cc2c[nH]c3cc(NC(=O)[C@@H]4C[C@H]4c4ccccc4)cc1c23 | 7.40 |
| O=C1CC(c2ccc(Cl)cc2Cl)Cc2[nH]c3cc(Cl)ccc3c(=O)c21 (stereo not given) | < 5.00 |
| O=C1NC(=O)C(c2cnc3ccccn23)=C1c1cn2c3c(cc(F)cc13)CN(C(=O)N1CCCCC1)CC2 | < 5.00 |
| CCNNc1cc(C)c(C#N)c2nc3ccccc3n12 | < 5.00 |
| NC(=O)c1cccc2[nH]c(-c3cccc(NCCN4CCCC4)n3)nc12 | < 5.00 |
| NC(=O)c1cc2c(-c3ccc(F)cc3F)cncc2s1 | 5.90 |
| Cc1ccc(C(=O)Nc2c(C#N)sc3ccc(Cl)c(Cl)c23)cc1 | < 5.00 |
| O=C(CO)N1CCC(c2[nH]nc(-c3ccc(Cl)cc3F)c2-c2ccncn2)CC1 | < 5.00 |
| Cc1cc(C)c2c(n1)sc1c(N)ncnc12 | 5.50 |
| N[C@H](COc1cncc(-c2ccc3c(c2)CC(=O)N3)c1)Cc1c[nH]c2ccccc12 | 5.90 |
| Cc1nc(N)sc1-c1ccnc(Nc2ccc(N3CCOCC3)cc2)n1 | 6.60 |
| C#Cc1cc2c(cc1OC)-c1[nH]nc(-c3ccc(C#N)nc3)c1C2 | < 5.00 |
| CC1=NN(c2ccccc2)C(=O)/C1=C/c1c(C)c(C#N)c2nc3ccccc3n2c1O | < 5.00 |

| Structure (SMILES) | pKi |
| --- | --- |
| Fc1ccc(-c2ncn(CCN3CCOCC3)c2-c2ccc3[nH]ncc3c2)cc1 | < 5.00 |
| CC(=O)N1CCC(Nc2nccc(-c3c(-c4ccc(F)cc4)nc4occn34)n2)CC1 | < 5.00 |
| Cc1cc(C)cc(NC(=O)Nc2ccc3c(c2)CCc2sc4ncnc(N)c4c2-3)c1 | < 5.00 |
| CC(C)=C(C)c1cccc2c(CCCOc3cccc(Cl)c3Cl)c(C(=O)O)[nH]c12 | < 5.00 |
| Oc1ccc(Nc2ncnc3scc(Cl)c23)cc1 | < 5.00 |
| CC(C)Cn1c(N)nc2c(F)cc(-c3c(-c4ccc(F)cc4)nc4sccn34)cc21 | < 5.00 |
| Cc1cccc(-c2[nH]c(-c3ccnc(N)n3)cc2C(N)=O)c1C | < 5.00 |
| N[C@H](COc1cncc(-c2cc3cnccc3s2)c1)Cc1c[nH]c2ccccc12 | 6.00 |
| NC(=O)c1cc(-c2ccnc(N)n2)[nH]c1-c1ccc(Cl)cc1Cl | 5.80 |
| NC(=O)c1sc2ccc(Cl)c(Cl)c2c1NC(=O)c1ccc(Cl)cc1 | < 5.00 |
| Cc1nnc(-c2cc3c(Oc4ccc(C(F)(F)F)cc4)cncc3s2)o1 | < 5.00 |
| CC(C)c1nnc2ccc(-c3c(-c4ccc(F)cc4F)nc4occn34)nn12 | < 5.00 |
| Nc1nnc(-c2cc3c(Oc4ccc(Cl)cc4)cncc3s2)o1 | 5.80 |
| O=c1[nH]c2sc3c(c2c2nc(-c4ccncc4)nn12)CCCC3 | < 5.00 |
| Clc1cc(-c2c[nH]c3ncccc23)nc(NC2CCCCC2)n1 | 6.10 |
| CCCn1c(C2CCNCC2)nc(-c2ccc(Cl)c(Cl)c2)c1-c1ccnc(NC2CCCCC2)n1 | 5.50 |
| CNC(=O)c1cc2c(-c3ccccc3F)n[nH]c2s1 | 5.50 |
| Cc1c(-c2cccc(OCc3ccccc3)c2)c2c(N)ncnc2n1[C@H]1CC[C@@H](N2CCCC2)CC1 | < 5.00 |
| Cc1nc(COc2ccccc2Cl)sc1-c1ccnc(N)n1 | 6.00 |

Results, then the compound that gave them:

| pKi | Structure (SMILES) |
| --- | --- |
| < 5.00 | CCNC(=O)c1cnc(N)c2c(-c3ccc(NC(=O)Nc4cccc(F)c4)cc3)csc12 |
| 5.70 | CN(C)C(=O)c1c(-c2ccc3[nH]ncc3c2)nnn1Cc1ccccc1 |
| 5.10 | CN(C)CC(=O)N[C@H](COc1cncc(-c2ccc3cnccc3c2)c1)Cc1c[nH]c2ccccc12 |
| < 5.00 | CCc1cccc(NC(=O)Nc2ccc3c(c2)CCc2sc4ncnc(N)c4c2-3)c1 |
| < 5.00 | O=C(Cc1ccccc1)Nc1cccc(-c2nc3sccn3c2-c2ccnc(Nc3ccc(N4CCOCC4)cc3)n2)c1 |
| 5.70 | Cn1cc(-c2cnc(N)c3c(-c4ccc(NC(=O)Nc5cccc(F)c5)cc4)csc23)cn1 |
| 5.30 | CNC(=O)c1cnc(N)c2c(-c3ccc(NC(=O)Nc4cc(C)ccc4F)cc3)csc12 |
| < 5.00 | Cc1nc2ccc(NS(=O)(=O)c3ccc(N)cc3)cc2nc1C |
| < 5.00 | OCCCn1cnc(-c2ccc(F)cc2)c1-c1ccncc1 |
| 5.80 | O=C(N[C@H](CO)c1ccccc1)c1ccc(-c2ccncc2)cc1 |
| < 5.00 | C[C@H](Nc1c(Nc2ccncc2)c(=O)c1=O)c1ccccc1 |
| < 5.00 | Clc1ccc(CNc2ccc3nnc(-c4ccccc4)n3n2)cc1 |
| < 5.00 | N[C@@H](Cc1cccc2ccccc12)C(=O)Nc1cncc(/C=C/c2ccncc2)c1 |
| 5.20 | CCN1CCN(c2ccc(Nc3nccc(-c4c(-c5cccc(C(=O)Nc6ccccc6F)c5)nc5ccccn45)n3)cc2)CC1 |
| < 5.00 | COc1ccc(-c2ccc(NC(=O)Nc3ccc(F)c(C)c3)cc2)c2c(N)noc12 |
| < 5.20 | Oc1ccc(-c2nc(-c3ccc(F)cc3)c(-c3ccncc3)[nH]2)cc1 |
| < 5.00 | COc1ccc2c(NC(=O)Nc3cccc(C(F)(F)F)n3)ccnc2c1 |
| < 5.00 | COc1ccc(OC)c(NC(=O)c2cnn3c(-c4ccccc4)ccnc23)c1 |
| 6.30 | CCCC(=O)Nc1cccc(-c2nc(Nc3ccc4[nH]ncc4c3)c3cc(OCCN4CCCC4)ccc3n2)c1 |
| 5.30 | C[C@H](N)COc1cnc(Cl)c(/C=C/c2ccncc2)c1 |
| < 5.00 | Nc1nccn2c(C3CC(CN4CCCC4)C3)nc(-c3cccc(OCc4ccccc4)c3)c12 (stereo not given) |
| 5.20 | NC(=O)c1cccc2[nH]c(-c3ccncc3)nc12 |
| < 5.00 | NCCOc1cccc(Nc2ccnc(N)n2)c1 |
| < 5.00 | CCN(CC)CC#Cc1cnc(N)c2c(-c3ccc(NC(=O)Nc4cccc(C)c4)cc3)csc12 |
| 5.70 | C[C@@H](NC(=O)c1ccc(-c2ccncc2)cc1)c1ccccc1 |

| pKi | Structure (SMILES) |
| --- | --- |
| 5.70 | COc1cccc(C(=O)Nc2cnc3[nH]cc(-c4ccccc4)c3c2)c1 |
| < 5.00 | Cc1cc(-c2ccccc2)n(-c2cc(N/N=C/c3ccco3)ncn2)n1 |
| < 5.00 | COc1ccc(NC(=O)Nc2ccc(-c3cccc4onc(N)c34)cc2)cc1Cl |
| 5.40 | Cc1ccc(CNc2c(Nc3ccncc3)c(=O)c2=O)cc1 |
| < 5.00 | O=C(Nc1cccc(C(F)(F)F)n1)Nc1ccnc2c(Cl)c(Cl)ccc12 |
| 5.70 | Cc1cccc(NC(=O)Nc2ccc(-c3csc4c(C#CCCCCCCCCN)cnc(N)c34)cc2)c1 |
| < 5.00 | Nc1c(-c2ccccc2)c2cc(Cl)ccc2[nH]c1=O |
| 6.20 | CC(C)N(C)C(=O)c1c(-c2ccc3[nH]ncc3c2)nnn1Cc1ccccc1 |
| < 5.20 | c1ccc(CNc2nc(-c3ccc4[nH]ncc4c3)cs2)cc1 |
| 5.50 | NC(=O)c1cc2c(-c3cccc(F)c3)cncc2s1 |
| < 5.00 | Cc1ccccc1NC(=O)Nc1ccc2c(c1)CCc1sc3ncnc(N)c3c1-2 |
| 6.50 | COc1cccc([C@H](C)NC(=O)c2ccc(-c3ccncc3)c(C)c2)c1 |
| 5.50 | O=C(NCc1ccccc1)c1ccc(-c2ccncc2)cc1 |
| < 5.00 | COc1ccc(-c2ccc(NC(=O)Nc3cc(F)cc(F)c3)cc2)c2c(N)noc12 |
| 5.70 | O=c1nc(-c2ccc3[nH]ncc3c2)cc(-c2ccccc2)[nH]1 |
| 5.40 | Cc1cccc(NC(=O)Nc2ccc(-c3csc4c(C#CCN)cnc(N)c34)cc2)c1 |
| < 5.00 | CN(C)C(=O)Nc1ccc2nc(-c3ccco3)c(-c3ccco3)nc2c1 |
| 5.50 | N[C@@H](Cc1c[nH]c2ccccc12)C(=O)Nc1cncc(/C=C/c2ccncc2)c1 |
| < 5.00 | N#Cc1ccc(NC(=O)Nc2ccnc3cc(C(F)(F)F)ccc23)nc1 |
| < 5.00 | Cc1ccc(NC(=O)Nc2ccc(NC(=O)c3csc4ncnc(N)c34)cc2)cc1 |
| 6.10 | COc1cccc(CNC(=O)c2cc3c(-c4ccccc4)n[nH]c3s2)c1 |
| < 5.00 | Nc1n[nH]c2cc(-c3ccc(NC(=O)Nc4cccc(C(F)(F)F)c4)cc3)ccc12 |
| < 5.00 | NCCOc1cncc(/C=C/c2ccncc2)c1 |
| < 5.00 | Cc1ccc(NC(=O)Nc2ccc(-c3csc4c(-c5cnn(C)c5)cnc(N)c34)cc2)cc1 |
